Experimental data reported in ChEMBL document CHEMBL5604063, “ASAP - DENV-2 NS2B-NS3 protease fluorescence dose response” (2024).
Where “and” joins values, the source holds several entries; their conditions need not be identical. Identical values can stand only once.

Columns and labels:
Genome polyprotein [1] = target: T1, Genome polyprotein (dengue virus type 2, UniProt P29990); format: functional, Thailand/16681/1984
Genome polyprotein [2] = target: T1, Genome polyprotein; format: functional, Thailand/16681/1984; remark: listed apart in the source

T1 sequence (P29990 1346-1475 limits assumed): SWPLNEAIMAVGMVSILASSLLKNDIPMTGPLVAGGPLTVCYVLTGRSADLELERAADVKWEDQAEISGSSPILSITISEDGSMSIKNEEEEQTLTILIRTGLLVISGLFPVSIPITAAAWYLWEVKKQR
T1 sequence (P29990 1476-2093 limits assumed): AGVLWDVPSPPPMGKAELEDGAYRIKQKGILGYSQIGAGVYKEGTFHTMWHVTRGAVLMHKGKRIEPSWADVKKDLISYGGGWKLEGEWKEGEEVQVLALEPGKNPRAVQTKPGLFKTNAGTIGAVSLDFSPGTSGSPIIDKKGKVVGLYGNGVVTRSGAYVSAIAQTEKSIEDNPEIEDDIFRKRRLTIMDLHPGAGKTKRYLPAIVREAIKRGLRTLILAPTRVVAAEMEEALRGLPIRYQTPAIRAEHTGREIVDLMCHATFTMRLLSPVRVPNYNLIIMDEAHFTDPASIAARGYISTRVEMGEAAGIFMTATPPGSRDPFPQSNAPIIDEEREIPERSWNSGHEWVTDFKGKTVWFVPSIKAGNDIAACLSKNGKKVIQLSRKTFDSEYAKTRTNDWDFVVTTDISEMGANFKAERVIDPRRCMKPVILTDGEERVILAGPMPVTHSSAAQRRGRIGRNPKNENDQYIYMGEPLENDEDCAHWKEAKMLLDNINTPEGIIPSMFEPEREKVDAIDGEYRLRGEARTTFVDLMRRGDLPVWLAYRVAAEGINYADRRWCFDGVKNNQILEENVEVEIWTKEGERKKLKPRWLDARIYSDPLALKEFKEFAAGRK

Compound	IC50 (Genome polyprotein [1])	IC50 (Genome polyprotein [2])
CC(C)c1noc2nc(C3CC3)cc(C(=O)Nc3cccc(CN)c3)c12	> 99.5 µM	> 100 µM
NCc1ccc(NS(=O)(=O)c2ccc(Oc3ccccc3Cl)cc2)cc1	> 99.5 µM	> 100 µM
CC(C)c1ncc(OC2CCC2)c(C(=O)Nc2cccc(CN)c2)n1	> 99.5 µM	> 100 µM
NCc1cccc(NC(=O)c2ccc(F)c(NC(=O)OCc3ccccc3)c2F)c1	> 99.5 µM	> 100 µM
Cc1c(CN)cccc1NS(=O)(=O)c1ccc(Oc2ccccc2Cl)cc1	> 99.5 µM	> 100 µM
N[C@H]1CCc2ncc(NS(=O)(=O)c3ccc(Oc4ccccc4Cl)cc3)cc2C1	> 99.5 µM	> 100 µM
O=C(Nc1cc(Cl)cc(C(=O)Nc2cccc([C@H]3CCCCN3)c2)c1)OCc1ccccc1	> 99.5 µM	> 100 µM
Cc1cc(=O)c(C(=O)Nc2cccc(CN)c2)nn1-c1ccccc1C(F)(F)F	> 99.5 µM	> 100 µM
C[C@H]1CCN1C(=O)Cn1ccnc(N2CC[C@H](CO)C2)c1=O	> 99.5 µM	> 100 µM
NCc1ccncc1NS(=O)(=O)c1ccc(Oc2ccccc2Cl)cc1	37.1 µM	> 100 µM
NCc1cccc(NC(=O)c2cc(C3CCCCC3)nc3ccc(F)cc23)c1	> 99.5 µM	> 100 µM
NCc1cccc(NC(=O)c2cccc(Oc3ccc(Cl)c(Cl)c3)n2)c1	95.6 µM	> 100 µM
NCC12CC(NC(=O)c3cc(Cl)cc(NC(=O)OCc4ccccc4)c3)(CCO1)C2	> 99.5 µM	> 100 µM
NCc1cccc(NC(=O)c2cc(C3CC3)nc3c(Cl)cnn23)c1	> 99.5 µM	> 100 µM
O=C(Cn1ccnc(N2CC[C@H](CO)C2)c1=O)N[C@H]1CCOC1	> 99.5 µM	> 100 µM
CCCOc1ccc2[nH]cc(CN3CCC(c4cscn4)CC3)c2c1	> 99.5 µM	> 100 µM
NCc1cccc(NC(=O)c2cccn3cc(CN4CCCC4)nc23)c1	> 99.5 µM	> 100 µM
CC(C)Oc1cc(CN)ccc1NS(=O)(=O)c1ccc(Oc2ccccc2Cl)cc1	> 99.5 µM	> 100 µM
NCc1cccc(NC(=O)Cc2cccc(Oc3ccncc3Br)c2)c1	> 99.5 µM	> 100 µM
O=C(Nc1cc(Cl)cc(C(=O)Nc2ccnc(OC3CNC3)c2)c1)OCc1ccccc1	> 99.5 µM	> 100 µM
NCc1cccc(NC(=O)c2cc(CO)cc(NC(=O)OCc3ccccc3)c2)c1	> 99.5 µM	> 100 µM

Compound	IC50 (Genome polyprotein [1])	IC50 (Genome polyprotein [2])
NCc1cccc(/C=C/c2cc(Cl)cc(NC(=O)OCc3ccccc3)c2)c1	> 99.5 µM	> 100 µM
CN1CCC[C@H]1COc1ccc([C@@H](NC(=O)OCc2ccccc2)C(=O)Nc2cccc(CN)c2)cc1	> 99.5 µM	> 100 µM
NCc1cccc(NC(=O)c2cccc3c2O[C@H](c2ccccc2)C(=O)N3)c1	> 99.5 µM	> 100 µM
NCc1cccc(NC(=O)c2cc(C(F)(F)F)ccc2SC2CCCC2)c1	> 99.5 µM	> 100 µM
Cc1ccc(NS(=O)(=O)c2ccc(Oc3ccccc3Cl)cc2)cc1CN	> 99.5 µM	> 100 µM
CCOc1cccc(-c2ccc(S(=O)(=O)Nc3cc4c(cc3C(=O)O)CCC4)cc2)c1	8.67 µM	11.5 µM
Cc1ccc(Sc2ncccc2C(=O)Nc2cccc(CN)c2)cc1C	> 99.5 µM	> 100 µM
O=C(Nc1cc(Cl)cc(C(=O)NC[C@@]23CN[C@H](CCO2)C3)c1)OCc1ccccc1	> 99.5 µM	> 100 µM
COCCN(C)C(=O)Cn1ccnc(N2CC[C@@H](CO)C2)c1=O	> 99.5 µM	> 100 µM
NCc1ccc(F)c(NC(=O)c2cc(Cl)cc(NC(=O)OCc3ccccc3)c2)c1	> 99.5 µM	> 100 µM
NCc1cccc(NC(=O)[C@H](NC(=O)OCc2ccccc2)C2CCN(C(=O)Cn3ccnc3)CC2)c1	> 99.5 µM	> 100 µM
CC(C)c1nn(-c2ccccc2)cc1C(=O)Nc1cccc(CN)c1	> 99.5 µM	> 100 µM
NCc1cccc(NC(=O)c2cc(C3CC3)n3nccc3n2)c1	> 99.5 µM	> 100 µM
CC[C@H](C(=O)Nc1cccc(CN)c1)n1cc(Br)c(C(F)(F)F)n1	> 99.5 µM	> 100 µM
CC(C)(C)OC(=O)NCc1cc(Cl)cc(C(=O)O)c1	> 99.5 µM	> 100 µM
O=C1Nc2ccccc2[C@H]1N1CCC(c2nc3ccccc3s2)CC1	> 99.5 µM	> 100 µM
CCc1onc(-c2ccc(Br)cc2)c1C(=O)Nc1cccc(CN)c1	> 99.5 µM	> 100 µM
O=C(Nc1cc(Cl)cc(C(=O)NCC[C@H]2COCCN2)c1)OCc1ccccc1	> 99.5 µM	> 100 µM
CC(C)(C)Cn1c(=O)[nH]c2cccc(C(=O)Nc3cccc(CN)c3)c21	> 99.5 µM	> 100 µM
CC(C)(C)NS(=O)(=O)c1cccc(C(=O)Nc2cccc(CN)c2)c1	> 99.5 µM	> 100 µM
O=C(Nc1cc(Cl)cc(C(=O)Nc2cccc([C@H]3CCCN3)c2)c1)OCc1ccccc1	95.3 µM	> 100 µM

Compound	IC50 (Genome polyprotein [1])	IC50 (Genome polyprotein [2])
Cn1nc(C2CC2)c2c(C(=O)Nc3cccc(CN)c3)cc(C3CC3)nc21	> 99.5 µM	> 100 µM
COCCCC(=O)N1CCC([C@H](NC(=O)OCc2ccccc2)C(=O)Nc2cccc(CN)c2)CC1	> 99.5 µM	> 100 µM
NCc1cccc(NC(=O)c2cc(C3CC3)nn2-c2ccccc2)c1	> 99.5 µM	> 100 µM
CC(C)(C#N)c1cc(C(=O)Nc2cccc(CN)c2)cc(C(F)(F)F)c1	> 99.5 µM	> 100 µM
NCc1ccc(CNC(=O)c2cc(Cl)cc(NC(=O)OCc3ccccc3)c2)c(F)c1	> 99.5 µM	> 100 µM
CCC1(NC(=O)Cn2ccnc(N3CC[C@@H](CO)C3)c2=O)CC1	> 99.5 µM	> 100 µM
CCCn1nc(C)c2c(C(=O)Nc3cccc(CN)c3)cc(C)nc21	> 99.5 µM	> 100 µM
CCC1CN(C(=O)Cn2ccnc(N3CC[C@@H](CO)C3)c2=O)C1	> 99.5 µM	> 100 µM
Cc1c(F)cc(C(=O)Nc2cccc(CN)c2)c(F)c1NC(=O)OCc1ccccc1	69.8 µM	100 µM
NCc1cccc(NC(=O)c2ccc(=O)n(Cc3ccccc3Cl)c2)c1	> 99.5 µM	> 100 µM
C#Cc1cc(CN)ccc1NS(=O)(=O)c1ccc(Oc2ccccc2Cl)cc1	> 99.5 µM	> 100 µM
Cc1ccc(S(=O)(=O)N2CCC([C@@H](NC(=O)OCc3ccccc3)C(=O)Nc3cccc(CN)c3)CC2)c(C)c1	> 99.5 µM	> 100 µM
CCc1cc(C(=O)Nc2cccc(CN)c2)sc1-c1ccc(Cl)cc1	19.7 µM and 24.8 µM	> 100 µM
O=C(Cn1ccnc(N2CC[C@H](CO)C2)c1=O)NCc1cc[nH]n1	> 99.5 µM	> 100 µM
Cc1ccc(C(=O)Nc2cccc(CN)c2)cc1NC(=O)Cc1ccncc1	> 99.5 µM	> 100 µM
c1cncc(-c2cccc(NCc3c[nH]c4ccccc34)c2)c1	> 99.5 µM	> 100 µM
NCc1cccc(NC(=O)c2nn(-c3ccccc3F)cc2Br)c1	> 99.5 µM	> 100 µM
O=C(Nc1cc(Cl)cc(C(=O)Nc2cccc([C@H]3CNCCO3)c2)c1)OCc1ccccc1	> 99.5 µM	> 100 µM
NCc1cccc(NC(=O)c2cc(C(F)(F)F)nn2CC2CCC2)c1	> 99.5 µM	> 100 µM
CCCC(=O)Nc1cc(Cl)cc(C(=O)Nc2cccc(CN)c2)c1	> 99.5 µM	> 100 µM
C[C@H]1CCCCN1C(=O)Cn1ccnc(N2CC[C@@H](CO)C2)c1=O	> 99.5 µM	> 100 µM

Compound	IC50 (Genome polyprotein [1])	IC50 (Genome polyprotein [2])
NCc1cccc(NC(=O)c2cc(C3CC3)n3nc(C(F)(F)F)cc3n2)c1	> 99.5 µM	> 100 µM
Cc1cc(CN)cc(NS(=O)(=O)c2ccc(Oc3ccccc3Cl)cc2)c1	> 99.5 µM	> 100 µM
NCc1cccc(NC(=O)c2c(C(F)F)nc3cnccn23)c1	> 99.5 µM	> 100 µM
CNC(=O)CN1CCC([C@@H](NC(=O)OCc2ccccc2)C(=O)Nc2cccc(CN)c2)CC1	> 99.5 µM	> 100 µM
NCc1cccc(NC(=O)c2ccnc3[nH]c(C4CCOCC4)nc23)c1	> 99.5 µM	> 100 µM
Cc1ccc(NC(=O)c2cc(Cl)ccc2Cl)c(C(=O)Nc2cccc(CN)c2)c1	> 99.5 µM	> 100 µM
O=c1[nH]c2cccc(N3CCN(Cc4c[nH]c5ccccc45)CC3)c2o1	> 99.5 µM	> 100 µM
O=C(Nc1cc(Cl)cc(C(=O)NC2([C@H]3CCNC3)CC2)c1)OCc1ccccc1	> 99.5 µM	> 100 µM
N[C@@H]1CC[C@H](CCNC(=O)c2cc(Cl)cc(NC(=O)OCc3ccccc3)c2)C1	> 99.5 µM	> 100 µM
Cc1cc(C(=O)Nc2cccc(CN)c2)cc(NC(=O)OCc2ccccc2)c1Cl	55.4 µM	> 100 µM
N[C@@H]1CC[C@H](NC(=O)c2cc(Cl)cc(NC(=O)OCc3ccccc3)c2)C1	> 99.5 µM	> 100 µM
CN(c1ccc(Oc2ccccc2Cl)cc1)S(=O)(=O)c1cc(F)c(Cl)cc1C(=O)O	65.4 µM	46.5 µM
c1ccc2c(CNC3CCN(Cc4cscn4)CC3)c[nH]c2c1	> 99.5 µM	> 100 µM
CCCCCn1cc(C(=O)Nc2cccc(CN)c2)c2ccccc21	> 99.5 µM	> 100 µM
Cc1ccc(-n2nc(C(=O)Nc3cccc(CN)c3)ccc2=O)cc1Cl	> 99.5 µM	> 100 µM
Cc1cc(C(=O)Nc2cccc(CN)c2)nc2c(C(C)C)cnn12	> 99.5 µM	> 100 µM
Cc1noc(C)c1Cc1ccc(C(=O)Nc2cccc(CN)c2)o1	> 99.5 µM	> 100 µM
CN1CCC(COc2ccc([C@@H](NC(=O)OCc3ccccc3)C(=O)Nc3cccc(CN)c3)cc2)CC1	> 99.5 µM	> 100 µM
NCc1cccc(NC(=O)c2nn(-c3ccc(Cl)c(F)c3)c3c2CCC3)c1	72.7 µM	> 100 µM
CCC[C@H](Oc1ccc(Cl)cc1C)C(=O)Nc1cccc(CN)c1	> 99.5 µM	> 100 µM
CCCN(C)CC(=O)N1CCC([C@@H](NC(=O)OCc2ccccc2)C(=O)Nc2cccc(CN)c2)CC1	> 99.5 µM	> 100 µM
